Our source for the MIC values is DBAASP.

What all share (experiment): ≥ marks a high value that may be exact or a test limit, other limits are often not marked, values filed in µg/mL are converted to µM
For experiment [1], the system named is Cryptococcus neoformans B3501.
The test system of experiment [2] is Escherichia coli O157:H7 ATCC 43895.
Experiment [3] deals with Escherichia coli U16318.
For experiment [4], the system named is Staphylococcus aureus B38302.
In experiment [5] the test system is Bacillus megaterium CIP 6620.
Experiment [6] deals with Corynebacterium stationis CIP 101282.
The test system of experiment [7] is Escherichia coli SBS 363.
Experiment [8] deals with Microbacterium maritypicum CIP 105733T.
The subject of experiment [9] is Micrococcus luteus CIP 5345.
Experiment [10] has as its system Staphylococcus aureus CIP 103428.
The subject of experiment [11] is Staphylococcus aureus SG511.
In experiment [12] the test system is Staphylococcus haemolyticus.
Experiment [13] has as its system Vibrio nigripulchritudo CIP 103195.
For experiment [14], the system named is Vibrio splendidus CIP 107715.
Experiment [15] has as its system Bacillus megaterium ATCC 19213.
Experiment [16] deals with Bacillus subtilis NBRC 3513.
The subject of experiment [17] is Staphylococcus aureus NBRC 12732.
Experiment [18] has as its system Staphylococcus epidermidis NBRC 12933.
Experiment [19] relates to Aspergillus fumigatus IOC 4526.
The test system of experiment [20] is Candida albicans ATCC 36802.
The subject of experiment [21] is Candida albicans IOC 4558.
Experiment [22] deals with Candida glabrata IOC 4565.
The test system of experiment [23] is Candida krusei IOC 4559.
The subject of experiment [24] is Candida parapsilosis IOC 4564.
In experiment [25] the test system is Candida tropicalis IOC 4560.
The subject of experiment [26] is Cryptococcus neoformans ATCC 90112.
Experiment [27] has as its system Cryptococcus neoformans IOC 4528.
Experiment [28] concerns Pseudomonas aeruginosa ATCC 27853.
The test system of experiment [29] is Staphylococcus aureus ATCC 29213.
Experiment [30] relates to Trichophyton rubrum IOC 4527.
Experiment [31] concerns Trichosporon sp. IOC 4569.
The test system of experiment [32] is Bacillus megaterium KCTC 1096.
Experiment [33] has as its system Bacillus subtilis KCTC 1918.
Experiment [34] has as its system Escherichia coli KCTC 1682.
In experiment [35] the test system is Proteus vulgaris.
In experiment [36] the test system is Pseudomonas aeruginosa KCTC 1637.
The test system of experiment [37] is Staphylococcus aureus KCTC 1621.
For experiment [38], the system named is Candida albicans CCARM 14001.
The test system of experiment [39] is Candida albicans CCARM 14007.
Experiment [40] deals with Candida albicans CCARM 14020.
Experiment [41] has as its system Candida albicans KCTC 7270.
Experiment [42] concerns Escherichia coli CCARM 1229.
The test system of experiment [43] is Escherichia coli CCARM 1238.
In experiment [44] the test system is Listeria monocytogenes KCTC 3710.
Experiment [45] concerns Salmonella typhimurium KCTC 1926.
In experiment [46] the test system is Trichosporon beigelii KCTC 7707.

≈ marks a conversion by molar mass, not a printed value.

With `CC(C)C[C@H](NC(=O)[C@H](C)N)C(=O)N[C@@H](Cc1c[nH]c2ccccc12)C(=O)N[C@@H](CCCCN)C(=O)N[C@H](C(=O)N[C@@H](CC(C)C)C(=O)N[C@@H](CC(C)C)C(=O)N[C@@H](CCCCN)C(=O)N[C@@H](CCCCN)C(=O)N[C@H](C(N)=O)C(C)C)[C@@H](C)O` [ALWKTLLKKV], the minimum inhibitory concentration (MIC) in experiment [1] was 30 µM (≈ 36 µg/mL); in experiment [2] it was at least 32 µM; in experiment [3] it was at least 50 µM; in experiment [4] it was at least 50 µM.
Regarding `CC[C@H](C)[C@H](NC(=O)[C@@H]1CCCN1C(=O)CN)C(=O)N[C@@H](CCCN=C(N)N)C(=O)N[C@@H](CCCN=C(N)N)C(=O)N1CCC[C@H]1C(=O)N[C@@H](CCCCN)C(=O)N1CCC[C@H]1C(=O)N[C@@H](CCCN=C(N)N)C(=O)N1CCC[C@H]1C(=O)N[C@@H](CCCN=C(N)N)C(=O)N1CCC[C@H]1C(=O)N[C@@H](CCCN=C(N)N)C(=O)N1CCC[C@H]1C(=O)N[C@@H](CCC(=O)O)C(=O)O` [GPIRRPKPRPRPRPE], the MIC in experiment [5] was 20 µM (≈ 36.2 µg/mL); in [6] it was 20 µM (≈ 36.2 µg/mL); in experiment [7], at least 80 µM; in [8] it was 20 µM (≈ 36.2 µg/mL); in [9], at least 80 µM; in [10] it was 20 µM (≈ 36.2 µg/mL). The minimal inhibitory concentration (MIC) was 20 µM (≈ 36.2 µg/mL) in [11], 20 µM (≈ 36.2 µg/mL) in [12], at least 40 µM in [13] and at least 40 µM in [14].
With `CC(C)C[C@H](NC(=O)[C@@H](N)CCCCN)C(=O)NCC(=O)N[C@@H](Cc1cnc[nH]1)C(=O)N[C@@H](Cc1cnc[nH]1)C(=O)NCC(=O)N[C@@H](CCCN=C(N)N)C(=O)N[C@@H](C)C(=O)N1CCC[C@H]1C(=O)N1CCC[C@H]1C(=O)O` [KLGHHGRAPP], the minimum inhibitory concentration (MIC) in experiment [15], in experiment [16], in [17] and in experiment [18] was at least 128 µM in each case.
On to `CC[C@H](C)[C@H](NC(=O)[C@H](CCCCN)NC(=O)[C@H](CCC(=O)O)NC(=O)[C@H](CCCCN)NC(=O)[C@@H]1CCCN1C(=O)[C@H](Cc1ccccc1)NC(=O)[C@H](CO)NC(=O)[C@H](Cc1cnc[nH]1)NC(=O)CNC(=O)CNC(=O)[C@H](CCCCN)NC(=O)[C@H](CCCCN)NC(=O)[C@H](Cc1cnc[nH]1)NC(=O)[C@H](CO)NC(=O)[C@H](CCC(N)=O)NC(=O)[C@@H](N)CCCCN)C(=O)N[C@@H](CO)C(=O)O` [KQSHKKGGHSFPKEKIS], for which the minimal inhibitory concentration (MIC) was at least 52 µM in experiment [19]; at least 52 µM in experiment [20]; at least 41.6 µM in experiment [21]; at least 41.6 µM in [22]; 29.4 µM (≈ 56.6 µg/mL) in experiment [23]; at least 41.6 µM in experiment [24]. For the same compound, the minimum inhibitory concentration (MIC) in [25] is at least 41.6 µM; in [26] it was 4.41 µM (≈ 8.49 µg/mL); in experiment [27], 4.41 µM (≈ 8.49 µg/mL); in experiment [7], at least 41.6 µM; in experiment [28], over 41.6 µM; in [29] it was over 41.6 µM. Moreover, the MIC in experiment [30] was at least 52 µM; in [31] it was at least 41.6 µM.
Regarding `CC[C@H](C)[C@H](NC(=O)[C@H](CCCCN)NC(=O)[C@H](CCCCN)NC(=O)[C@H](Cc1ccccc1)NC(=O)[C@H](CC(C)C)NC(=O)[C@H](CCCCN)NC(=O)[C@H](Cc1c[nH]c2ccccc12)NC(=O)[C@@H](N)CCCCN)C(=O)N1CCC[C@H]1C(=O)N[C@@H](CC(C)C)C(=O)N[C@@H](C)C(=O)N[C@@H](CCCCN)C(=O)N[C@@H](CCCCN)C(=O)N[C@@H](Cc1ccccc1)C(N)=O` [KWKLFKKIPLAKKF], the MIC in [32] stood at 3.12 µM (≈ 5.54 µg/mL); in experiment [33], 1.56 µM (≈ 2.77 µg/mL); in [34], 8.84 µM (≈ 15.7 µg/mL); in experiment [35], 3.12 µM (≈ 5.54 µg/mL); in experiment [36] it was 12.5 µM (≈ 22.2 µg/mL); in [37], 6.25 µM (≈ 11.1 µg/mL).
For the compound `NCCCC[C@H](NC(=O)[C@H](Cc1c[nH]c2ccccc12)NC(=O)[C@H](CCCCN)NC(=O)[C@H](Cc1c[nH]c2ccccc12)NC(=O)[C@H](CCCCN)NC(=O)[C@@H](N)Cc1c[nH]c2ccccc12)C(=O)O` [WKWKWK], the minimum inhibitory concentration (MIC) was at least 256 µM in experiment [33]; at least 32 µM in experiment [38]; at least 32 µM in experiment [39]; at least 32 µM in experiment [40]; at least 32 µM in experiment [41]; at least 256 µM in experiment [42]. Moreover, the MIC in [43] was at least 256 µM; in experiment [34], at least 256 µM; in experiment [44] it was at least 128 µM; in experiment [36], at least 64 µM; in experiment [45] it was 16 µM (≈ 15.4 µg/mL); in experiment [37] it was at least 256 µM. In addition, the minimum inhibitory concentration (MIC) in [46] came out at 16 µM (≈ 15.4 µg/mL).
